Patent publication US20180050993A1, “NOVEL FLUORINATED DERIVATIVES AS EGFR INHIBITORS USEFUL FOR TREATING CANCERS” (Trillium Therapeutics Inc., priority 2015, published 2018)
Counter-ions that a name gives are not always drawn. Like-named read-outs stand apart in the source and are kept apart here. Blank lines part the entries; values can stand above or below the compound they belong to.

Legend:
[1] = Mouse liver microsomal stability; format: in vitro ADME; conditions: stability in pooled mouse (CD-1, male) liver microsomes 0.5 mg/ml, compound 1 μM, parent compound by LC/MS, in % (unit assumed)
Description: (§1) Working stocks were initially diluted to a concentration of 40.0 μM in 0.1 M potassium phosphate buffer before addition to the reaction vials. Pooled mouse (CD-1, male) or human (50 donors) liver microsomes were utilized at a final concentration of 0.5 mg/ml. Duplicate wells were used for each time point (0 and 30 minutes). Reactions were carried out at 37° C. in a shaker, and the final concentration of DMSO was kept constant at 0.01%. The final volume for each reaction was 100 μL, which includes the addition of an NADPH-Regeneration solution (NRS) mix. This NRS mix is comprised of glucose 6-phosphate dehydrogenase (0.4 U/mL), NADP+ (1.3 mM), MgCl2 (3.3 mM), and glucose 6-phosphate (3.3 mM) in assay mixtures. Upon completion of the 30 minute time point, reactions were terminated by the addition of 1.5-volumes (150 μL) of ice-cold, acetonitrile with 0.5% formic acid and internal standard. Samples were then centrifuged at 4,000 rpm for 10 minutes to remove debris and precipitated protein. Approximately 150 μL of supernatant was subsequently transferred to a new 96 well microplate for LC/MS analysis.
(§2) Narrow-window mass extraction LC/MS analysis was performed for all samples using a Waters Xevo quadrupole time-of-flight (QTof) mass spectrometer and an ACQUITY UPLC system, to determine relative peak areas of parent compound.
(§3) Human and mouse liver microsomes contain a wide variety of drug metabolizing enzymes and are commonly used to support in vitro ADME (absorption, distribution, metabolism and excretion) studies. These microsomes are used to examine the potential first-pass metabolism by-products of orally administered drugs. Representative compounds of the application were evaluated for their stability in human and mouse liver microsomes.

[2] = Human liver microsomal stability; format: in vitro ADME; conditions: stability in pooled human (50 donors) liver microsomes 0.5 mg/ml, compound 1 μM, parent compound by LC/MS
Description: as §1, §2, §3

[3] = Brain concentrations after PO administration in rat, peak at 8 hours (Table 5); format: in vivo; conditions: brain, PO 50 mg/kg, Table 5 (8 hours)
P-gp = biological target: T1, P-gp (Homo sapiens, UniProt P08183); test: Evaluation of P-gp efflux in Caco-2 cell monolayers; format: in vitro ADME;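 further: Caco-2 monolayers dosed apically or basolaterally with test compound at 5 µM in HBSS with HEPES and glucose, 37 °C, donor and receiver sampled after 120 min, LC/MS peak areas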
T1 construct: host or cells: Caco-2 (C2BBe1)

EGFR (L858R) = biological target: T2, EGFR (L858R) (Homo sapiens, UniProt P00533, L858R); test: Kinase HotSpot profiling (Reaction Biology), 33P-ATP filter-binding; format: biochemical; conditions: mutant EGFR L858R
T2 construct: purchased Reaction Biology
Description: (§4) Base Reaction buffer; 20 mM Hepes (pH 7.5), 10 mM MgCl2, 1 mM EGTA, 0.02% Brij35, 0.02 mg/ml BSA, 0.1 mM Na3VO4, 2 mM DTT, 1% DMSO
(§5) *Required cofactors are added individually to each kinase reaction
(§6) 1. The indicated substrate was prepared in fresh Base Reaction Buffer.
(§7) 2. Any required cofactors were added to the substrate solution above.
(§8) 3. Indicated kinase was added into the substrate solution and gently mixed.
(§9) 4. Compounds in DMSO were added into the kinase reaction mixture by Acoustic technology (Echo550; nanoliter range) and incubated for 20 minutes at room temperature.
(§10) 5. 33P-ATP (specific activity 10 μCi/μl) was added into the reaction mixture to initiate the reaction.
(§11) 6. The kinase reaction was incubated for 2 hours at room temperature
(§12) 7. Reactions were spotted onto P81 ion exchange paper.
(§13) 8. Kinase activity was detected by filter-binding method.
(§14) Representative compounds of Formula I were evaluated against WT EGFR and mutant EGFR (L858R and L858R, T790M) kinases. IC50 concentrations are illustrated in Table 9.

EGFR = biological target: T3, EGFR (Homo sapiens, UniProt P00533); test: as above; format: biochemical; conditions: WT EGFR
T3 construct: purchased Reaction Biology
Description: as §4, §5, §6, §7, §8, §9, §10, §11, §12, §13, §14

[4] = Caco-2, pH 7.4, with none (verapamil 0 μM), Caco-2, Verapamil 0 μM, read-out: Recovery (%) AP-BL
[5] = Caco-2, pH 7.4, with none (verapamil 0 μM), Caco-2, Verapamil 0 μM, read-out: Recovery (%) BL-AP
[6] = Caco-2, pH 7.4, with verapamil 100 μM, Caco-2, Verapamil 100 μM, read-out: Recovery (%) AP-BL
[7] = Caco-2, pH 7.4, with verapamil 100 μM, Caco-2, Verapamil 100 μM, read-out: Recovery (%) BL-AP

T2 sequence (P00533 25-1210 L858R): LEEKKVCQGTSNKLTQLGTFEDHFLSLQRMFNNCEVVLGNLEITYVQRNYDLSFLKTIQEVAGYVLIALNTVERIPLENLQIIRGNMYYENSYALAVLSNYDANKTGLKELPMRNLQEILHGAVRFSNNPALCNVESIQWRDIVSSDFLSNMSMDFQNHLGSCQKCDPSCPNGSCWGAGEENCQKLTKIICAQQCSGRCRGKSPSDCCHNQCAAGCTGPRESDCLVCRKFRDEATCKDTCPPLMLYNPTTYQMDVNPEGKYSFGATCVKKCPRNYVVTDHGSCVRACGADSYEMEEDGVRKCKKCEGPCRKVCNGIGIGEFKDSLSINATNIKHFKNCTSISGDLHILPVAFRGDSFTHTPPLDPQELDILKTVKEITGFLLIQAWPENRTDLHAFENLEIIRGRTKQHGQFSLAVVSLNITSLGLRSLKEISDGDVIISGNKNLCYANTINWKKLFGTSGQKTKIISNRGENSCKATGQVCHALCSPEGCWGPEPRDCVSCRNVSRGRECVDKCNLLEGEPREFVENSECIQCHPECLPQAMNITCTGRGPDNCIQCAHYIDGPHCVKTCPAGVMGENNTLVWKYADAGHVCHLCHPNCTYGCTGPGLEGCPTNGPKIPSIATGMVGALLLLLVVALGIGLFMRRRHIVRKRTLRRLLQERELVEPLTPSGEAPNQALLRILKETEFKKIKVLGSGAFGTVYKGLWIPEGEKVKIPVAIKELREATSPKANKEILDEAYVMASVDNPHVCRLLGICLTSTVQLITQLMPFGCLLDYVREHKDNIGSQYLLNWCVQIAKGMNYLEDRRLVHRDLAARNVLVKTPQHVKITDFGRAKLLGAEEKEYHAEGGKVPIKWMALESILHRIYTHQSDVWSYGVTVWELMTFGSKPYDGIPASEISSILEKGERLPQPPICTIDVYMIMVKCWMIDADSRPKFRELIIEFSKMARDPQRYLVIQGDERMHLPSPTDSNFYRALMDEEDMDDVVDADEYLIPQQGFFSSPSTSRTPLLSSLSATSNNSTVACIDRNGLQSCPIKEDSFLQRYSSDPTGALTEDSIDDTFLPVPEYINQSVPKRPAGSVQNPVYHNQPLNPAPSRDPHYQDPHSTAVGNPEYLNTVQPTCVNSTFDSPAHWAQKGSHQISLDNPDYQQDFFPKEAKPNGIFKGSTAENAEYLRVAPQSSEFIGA
T3 sequence (P00533 25-1210): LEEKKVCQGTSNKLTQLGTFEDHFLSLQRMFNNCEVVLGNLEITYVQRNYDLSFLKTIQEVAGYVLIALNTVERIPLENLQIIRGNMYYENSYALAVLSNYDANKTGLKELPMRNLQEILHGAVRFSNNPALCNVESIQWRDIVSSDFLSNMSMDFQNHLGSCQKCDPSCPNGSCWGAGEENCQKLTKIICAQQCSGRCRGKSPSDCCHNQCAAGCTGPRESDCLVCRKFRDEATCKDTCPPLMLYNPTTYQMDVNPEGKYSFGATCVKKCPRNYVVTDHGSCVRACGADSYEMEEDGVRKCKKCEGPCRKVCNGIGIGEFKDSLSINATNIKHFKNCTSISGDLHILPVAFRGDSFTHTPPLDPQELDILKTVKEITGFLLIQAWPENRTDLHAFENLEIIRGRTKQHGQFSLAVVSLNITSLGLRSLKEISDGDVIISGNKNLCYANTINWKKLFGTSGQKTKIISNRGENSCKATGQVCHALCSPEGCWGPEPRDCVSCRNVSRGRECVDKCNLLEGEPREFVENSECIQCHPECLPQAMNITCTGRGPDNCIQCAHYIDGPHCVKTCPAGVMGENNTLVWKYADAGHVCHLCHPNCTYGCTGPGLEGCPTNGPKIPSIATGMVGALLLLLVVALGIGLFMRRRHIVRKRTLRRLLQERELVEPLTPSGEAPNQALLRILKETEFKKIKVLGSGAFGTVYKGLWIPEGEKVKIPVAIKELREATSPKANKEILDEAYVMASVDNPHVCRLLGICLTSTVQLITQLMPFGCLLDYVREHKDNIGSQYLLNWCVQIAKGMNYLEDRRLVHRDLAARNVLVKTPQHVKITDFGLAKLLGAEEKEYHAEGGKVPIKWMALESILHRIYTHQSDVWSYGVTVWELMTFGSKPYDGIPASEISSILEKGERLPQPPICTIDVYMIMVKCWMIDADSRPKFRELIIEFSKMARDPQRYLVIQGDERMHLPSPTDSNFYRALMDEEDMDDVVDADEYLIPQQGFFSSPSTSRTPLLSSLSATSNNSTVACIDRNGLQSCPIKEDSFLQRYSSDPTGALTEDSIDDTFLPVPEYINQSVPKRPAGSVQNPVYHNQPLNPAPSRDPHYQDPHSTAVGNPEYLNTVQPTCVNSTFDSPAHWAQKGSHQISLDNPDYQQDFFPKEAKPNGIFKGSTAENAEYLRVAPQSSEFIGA
T1 sequence (P08183 whole entry): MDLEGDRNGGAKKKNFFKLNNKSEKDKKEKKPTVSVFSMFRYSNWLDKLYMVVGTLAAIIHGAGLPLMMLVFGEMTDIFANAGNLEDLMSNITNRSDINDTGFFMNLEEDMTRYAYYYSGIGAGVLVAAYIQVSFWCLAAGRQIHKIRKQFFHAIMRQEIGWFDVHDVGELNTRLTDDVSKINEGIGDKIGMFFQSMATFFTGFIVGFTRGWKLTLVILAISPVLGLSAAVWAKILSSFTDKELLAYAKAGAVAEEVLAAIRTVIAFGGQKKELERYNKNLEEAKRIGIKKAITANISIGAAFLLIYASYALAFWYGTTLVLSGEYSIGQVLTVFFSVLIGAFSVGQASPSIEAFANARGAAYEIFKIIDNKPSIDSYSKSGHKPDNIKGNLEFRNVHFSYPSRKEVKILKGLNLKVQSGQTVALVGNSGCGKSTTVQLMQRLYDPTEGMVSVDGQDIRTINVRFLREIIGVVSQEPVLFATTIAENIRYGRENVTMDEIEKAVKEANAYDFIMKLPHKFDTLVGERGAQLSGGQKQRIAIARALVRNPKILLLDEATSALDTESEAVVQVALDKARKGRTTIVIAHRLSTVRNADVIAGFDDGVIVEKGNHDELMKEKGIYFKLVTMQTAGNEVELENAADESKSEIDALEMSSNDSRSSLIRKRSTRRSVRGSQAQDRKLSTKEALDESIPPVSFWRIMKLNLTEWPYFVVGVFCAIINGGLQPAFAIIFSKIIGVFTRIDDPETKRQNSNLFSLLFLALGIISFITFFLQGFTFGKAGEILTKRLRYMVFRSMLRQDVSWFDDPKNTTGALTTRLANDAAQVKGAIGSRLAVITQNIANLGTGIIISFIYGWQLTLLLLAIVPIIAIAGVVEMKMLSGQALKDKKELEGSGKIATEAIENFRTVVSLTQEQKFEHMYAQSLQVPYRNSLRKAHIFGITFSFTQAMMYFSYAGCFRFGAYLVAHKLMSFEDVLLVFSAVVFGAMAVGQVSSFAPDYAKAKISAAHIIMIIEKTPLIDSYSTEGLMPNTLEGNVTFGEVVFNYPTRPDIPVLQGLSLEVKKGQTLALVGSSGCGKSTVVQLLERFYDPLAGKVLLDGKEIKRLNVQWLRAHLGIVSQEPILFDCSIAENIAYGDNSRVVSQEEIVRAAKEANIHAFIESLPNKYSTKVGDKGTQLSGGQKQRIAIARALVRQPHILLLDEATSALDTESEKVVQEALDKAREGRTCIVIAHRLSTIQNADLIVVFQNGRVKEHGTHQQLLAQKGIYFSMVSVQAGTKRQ

Cmax ([3]; Sprague-Dawley): 828 ng/g
Tmax ([3]; Sprague-Dawley): 8 h
AUCInf [3]: 18449 ng·h/g
AUClast [3]: 14522 ng·h/g
recovery at 120 min, 5 μM (P-gp; [4]): 55.5%
recovery at 120 min, 5 μM (P-gp; [5]): 56.2%
recovery at 120 min, 5 μM (P-gp; [6]): 76.8%
recovery at 120 min, 5 μM (P-gp; [7]): 58%
Papp A→B at 120 min, 5 μM (P-gp; pH 7.4, Caco-2, Verapamil 0 μM): 16 ×10⁻⁶ cm/s
Papp B→A at 120 min, 5 μM (P-gp; pH 7.4, Caco-2, Verapamil 0 μM): 13.9 ×10⁻⁶ cm/s
Structure (SMILES): C#Cc1cccc(Nc2ncnc3cc(OCCOC)c(OCCOC)cc23)c1 [Erlotinib•HCl, N-(3-ethynylphenyl)-6,7-bis(2-methoxyethoxy)quinazolin-4-amine]

MLM (30 min) [1]: 51.8
HLM (30 min) [2]: 71.6%
Structure (SMILES): Fc1ccccc1Nc1ncnc2cc(OCCOC(F)F)c(OCCOC(F)F)cc12 [2(Hh), 6,7-bis[2-(difluoromethoxy)ethoxy]-N-(2-fluorophenyl)quinazolin-4-amine]

MLM (30 min) [1]: 39.3
HLM (30 min) [2]: 82.1%
Structure (SMILES): Fc1cc(F)c(Nc2ncnc3cc(OCCOC(F)F)c(OCCOC(F)F)cc23)c(F)c1 [2(Ll), 6,7-bis[2-(difluoromethoxy)ethoxy]-N-(2,4,6-trifluorophenyl)quinazolin-4-amine]

MLM (30 min) [1]: 69.6
HLM (30 min) [2]: 76.4%
Structure (SMILES): Fc1c(Cl)cccc1Nc1ncnc2cc(OCCOC(F)F)c(OCCOC(F)F)cc12 [2(Ff), N-(3-chloro-2-fluoro-phenyl)-6,7-bis[2-(difluoromethoxy)ethoxy]quinazolin-4-amine]

recovery at 120 min, 5 μM (P-gp; [4]): 76.9%
recovery at 120 min, 5 μM (P-gp; [5]): 84.3%
recovery at 120 min, 5 μM (P-gp; [6]): 90.3%
recovery at 120 min, 5 μM (P-gp; [7]): 99.7%
Papp A→B at 120 min, 5 μM (P-gp; pH 7.4, Caco-2, Verapamil 0 μM): 0.64 ×10⁻⁶ cm/s
Papp B→A at 120 min, 5 μM (P-gp; pH 7.4, Caco-2, Verapamil 0 μM): 15.8 ×10⁻⁶ cm/s
Structure (SMILES): C[C@H]1O[C@@H](O[C@H]2[C@@H](O)C[C@H](O[C@H]3[C@@H](O)C[C@H](O[C@H]4CC[C@@]5(C)[C@H](CC[C@@H]6[C@@H]5C[C@@H](O)[C@]5(C)[C@@H](C7=CC(=O)OC7)CC[C@]65O)C4)O[C@@H]3C)O[C@@H]2C)C[C@H](O)[C@@H]1O [Digoxin]

IC50 (EGFR (L858R)): 0.345 nM
IC50 (EGFR): 0.143 nM
Structure (SMILES): COc1cc2ncnc(Nc3ccc(F)c(Cl)c3F)c2cc1OC(=O)N1CCC[C@H](OC(F)F)C1 [2(Pp), [4-(3-chloro-2,4-difluoro-anilino)-7-methoxy-quinazolin-6-yl] (3S)-3-(difluoromethoxy)piperidine-1-carboxylate]

MLM (30 min) [1]: 0.7
HLM (30 min) [2]: 60.4%
Structure (SMILES): COc1cc2ncnc(Nc3ccc(F)c(Cl)c3F)c2cc1OCCOC(F)F [2(k), N-(3-chloro-2,4-difluoro-phenyl)-6-[2-(difluoromethoxy)ethoxy]-7-methoxy-quinazolin-4-amine]

IC50 (EGFR (L858R)): 0.052 nM
IC50 (EGFR): 0.0205 nM
Structure (SMILES): COc1cc2ncnc(Nc3ccc(F)c(Cl)c3F)c2cc1OC(=O)N1CCC(OC(F)F)CC1 [2(Oo), [4-(3-chloro-2,4-difluoro-anilino)-7-methoxy-quinazolin-6-yl] 4-(difluoromethoxy)piperidine-1-carboxylate]

recovery at 120 min, 5 μM (P-gp; [4]): 69.8%
recovery at 120 min, 5 μM (P-gp; [5]): 85%
Papp A→B at 120 min, 5 μM (P-gp; pH 7.4, Caco-2, Verapamil 0 μM): 25.1 ×10⁻⁶ cm/s
Papp B→A at 120 min, 5 μM (P-gp; pH 7.4, Caco-2, Verapamil 0 μM): 16.3 ×10⁻⁶ cm/s
efflux ratio at 120 min, 5 µM (P-gp; pH 7.4, Caco-2, Verapamil 0 μM): 0.65
Structure (SMILES): CC(C)NCC(O)COc1cccc2ccccc12 (centres unmarked) [Propranolol]

MLM (30 min) [1]: 94.3
HLM (30 min) [2]: 96.4%
Structure (SMILES): C#Cc1cccc(Nc2ncnc3cc(OCCOC(F)F)c(OCCOC(F)F)cc23)c1 [2(b), 6,7-bis[2-(difluoromethoxy)ethoxy]-N-(3-ethynylphenyl)quinazolin-4-amine]

IC50 (EGFR (L858R)): 0.0891 nM
IC50 (EGFR): 0.0298 nM
Structure (SMILES): COc1cc2ncnc(Nc3ccc(F)c(Cl)c3F)c2cc1NC(=O)N1CCC(COC(F)F)CC1 [3(A), N-[4-(3-chloro-2,4-difluoro-anilino)-7-methoxy-quinazolin-6-yl]-4-(difluoromethoxymethyl)piperidine-1-carboxamide]

MLM (30 min) [1]: 1.5
HLM (30 min) [2]: 19.7%
Structure (SMILES): COc1cc2ncnc(Nc3cccc(Cl)c3F)c2cc1OCCOC(F)F [2(i), N-(3-chloro-2-fluoro-phenyl)-6-[2-(difluoromethoxy)ethoxy]-7-methoxy-quinazolin-4-amine]

MLM (30 min) [1]: 43.7
HLM (30 min) [2]: 77.6%
Structure (SMILES): Fc1cccc(F)c1Nc1ncnc2cc(OCCOC(F)F)c(OCCOC(F)F)cc12 [2(Kk), 6,7-bis[2-(difluoromethoxy)ethoxy]-N-(2,6-difluorophenyl)quinazolin-4-amine]

The next lines start with the compound.

Structure (SMILES): Fc1ccc(Nc2ncnc3cc(OCCOC(F)F)c(OCCOC(F)F)cc23)cc1Cl [2(c), N-(3-chloro-4-fluoro-phenyl)-6,7-bis[2-(difluoromethoxy)ethoxy]quinazolin-4-amine]
MLM (30 min) [1]: 94.6
HLM (30 min) [2]: 88.5%

Structure (SMILES): COc1cc2ncnc(Nc3ccc(F)c(Cl)c3F)c2cc1NC(=O)N1CC(OC(F)F)C1 [3(B), N-[4-(3-chloro-2,4-difluoro-anilino)-7-methoxy-quinazolin-6-yl]-3-(difluoromethoxy)azetidine-1-carboxamide]
IC50 (EGFR (L858R)): 0.0138 nM
IC50 (EGFR): 0.0125 nM

Structure (SMILES): Fc1c(Nc2ncnc3cc(OCCOC(F)F)c(OCCOC(F)F)cc23)ccc(Cl)c1Cl [2(a), N-(3,4-dichloro-2-fluoro-phenyl)-6,7-bis[2 (difluoromethoxy)ethoxy]quinazolin-4-amine]
MLM (30 min) [1]: 72.5
HLM (30 min) [2]: 90.7%

Structure (SMILES): FC(F)OCCOc1cc2ncnc(Nc3ccc(C(F)(F)F)cc3)c2cc1OCCOC(F)F [2(Gg), 6,7-bis[2-(difluoromethoxy)ethoxy]-N-[4-(trifluoromethyl)phenyl]quinazolin-4-amine]
MLM (30 min) [1]: 106.2
HLM (30 min) [2]: 99.8%

Structure (SMILES): Fc1ccc(Nc2ncnc3cc(OCCOC(F)F)c(OCCOC(F)F)cc23)c(F)c1Cl [2(d), N-(3-chloro-2,4-difluoro-phenyl)-6,7-bis[2-(difluoromethoxy)ethoxy]quinazolin-4-amine]
MLM (30 min) [1]: 90.4
HLM (30 min) [2]: 83.1%

Structure (SMILES): Fc1cc(Cl)ccc1Nc1ncnc2cc(OCCOC(F)F)c(OCCOC(F)F)cc12 [2(e), N-(4-chloro-2-fluoro-phenyl)-6,7-bis[2-(difluoromethoxy)ethoxy]quinazolin-4-amine]
MLM (30 min) [1]: 67.8
HLM (30 min) [2]: 89.6%

Structure (SMILES): FC(F)OCCOc1cc2ncnc(Nc3ccccc3C(F)(F)F)c2cc1OCCOC(F)F [2(Ee), 6,7-bis[2-(difluoromethoxy)ethoxy]-N-[2-(trifluoromethyl)phenyl]quinazolin-4-amine]
MLM (30 min) [1]: 11.8
HLM (30 min) [2]: 49.2%

Structure (SMILES): FC(F)OCCOc1cc2ncnc(Nc3ccccc3Cl)c2cc1OCCOC(F)F [2(Dd)]
MLM (30 min) [1]: 22.2
HLM (30 min) [2]: 54.7%

Structure (SMILES): C#Cc1cccc(Nc2ncnc3cc(OCCOC(F)F)c(OCCOC(F)F)cc23)c1F [2(Nn)]
IC50 (EGFR (L858R)): 0.977 nM
IC50 (EGFR): 0.587 nM
